Reference: patent publication US11932621B1, “2-[9-(2-hydroxypyridin-3-yl)-1,8-dioxo-1,2,3,4,5-6,7,8,9,10-decahydroacridin-10-yl]-acetate as an antimicrobial compound” (KING FAISAL UNIVERSITY, priority 2023, dated 2024)

Assays:
Assay type in all cases: cell-based
Settings in all cases: after 10, 20, 40 and 60 minutes at all dilutions 1:100, 1:200, 1:400, 1:800
Staphylococcus aureus = assay: Antimicrobial screening by agar dilution, Staphylococcus aureus
Procedure: (§1) The antibacterial properties of the synthesized compound 2-[9-(2-hydroxypyridin-3-yl)-1,8-dioxo-1,2,3,4,5,-6,7,8,9,10-decahydroacridin-10-yl]-acetate were studied by the method of agar dilution. Test solutions of each compound was prepared in concentration of 1% using dimethylformamide as a solvent then they are diluted in physiological solution to obtain the final experimental dilutions 1:100, 1:200, 1:400, 1:800. The effect of these substances are compared with furacillin in a controllable study. The testing microbes used were gram positive bacteria Staphylococcus aureus, gram negative bacteria Pseudomonas aeruginosa and Escherichia coli and Candida albicans fungus. The experiments used for this survey were meat-pentonlu agar (EPA) for cultivation of bacteria and Saburo environment for the fungus. Each experiment used 1 mL of test solution on each plate […]. Two drops of emulsified with microbes feel were added. All experimental samples were taken from the agar after 10, 20, 40, 60 minutes in the environment on the basis of Patrk planted. The bacteria were cultivated at a temperature of 37° C. for 1 day and the mushroom was kept in a thermostat for […] at a temperature of 28° C. Then results were checked.

Escherichia coli = assay: Antimicrobial screening by agar dilution, Escherichia coli
Procedure: as §1

Pseudomonas aeruginosa = assay: Antimicrobial screening by agar dilution, Pseudomonas aeruginosa
Procedure: as §1

Candida albicans = assay: Antimicrobial screening by agar dilution, Candida albicans
Procedure: as §1

Measured: inhibition activity

CCOC(=O)CN1C2=C(C(=O)CCC2)C(c2cccnc2O)C2=C1CCCC2=O [2-[9-(2-hydroxypyridin-3-yl)-1,8-dioxo-1,2,3,4,5,-6,7,8,9,10-decahydroacridin-10-yl]-acetate]
highest inhibition activity: Staphylococcus aureus | Escherichia coli | Pseudomonas aeruginosa | Candida albicans
